According to patent US10550105B2 (Ribon Therapeutics Inc., priority 2018, dated 2020):

target: PARP7 (Homo sapiens (Human), UniProt Q7Z3E1); assay: Enzymatic assay for inhibition of PARP7: TR-FRET displacement of biotinylated Probe A from the TIPARP active site; type: binding; settings: Table A-1
Outline: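 Compound dose-response series were incubated with TIPARP and biotinylated Probe A, with a final 30 min step at 25 °C. TR-FRET was read at 320 nm excitation, 615/665 nm emission and 90 μs delay, using the 665/615 ratio to measure complex formation. % inhibition was fitted with a floating or fixed (1) Hill coefficient.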

Chain of PARP7 (Q7Z3E1 whole entry): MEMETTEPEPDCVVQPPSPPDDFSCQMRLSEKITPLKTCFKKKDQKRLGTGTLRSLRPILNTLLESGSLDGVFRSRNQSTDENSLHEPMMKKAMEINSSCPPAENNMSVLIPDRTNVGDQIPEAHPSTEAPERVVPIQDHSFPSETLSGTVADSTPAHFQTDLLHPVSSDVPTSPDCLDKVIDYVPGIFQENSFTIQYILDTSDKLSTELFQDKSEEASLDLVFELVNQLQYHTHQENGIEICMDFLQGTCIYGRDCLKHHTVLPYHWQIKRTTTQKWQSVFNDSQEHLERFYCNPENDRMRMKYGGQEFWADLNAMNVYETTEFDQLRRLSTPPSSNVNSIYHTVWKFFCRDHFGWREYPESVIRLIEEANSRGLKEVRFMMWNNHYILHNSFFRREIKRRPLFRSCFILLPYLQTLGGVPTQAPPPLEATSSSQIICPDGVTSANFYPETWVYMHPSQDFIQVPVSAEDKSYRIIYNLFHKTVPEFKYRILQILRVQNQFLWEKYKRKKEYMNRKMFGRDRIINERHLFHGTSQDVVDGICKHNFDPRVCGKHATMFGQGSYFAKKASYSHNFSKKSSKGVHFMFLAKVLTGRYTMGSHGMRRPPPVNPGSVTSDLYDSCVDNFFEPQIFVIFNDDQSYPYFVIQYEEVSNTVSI

Structure (SMILES)	IC50 [nM]
C[C@@H](COCCC(=O)N1CC=C(c2ccc(C#N)cn2)CC1)Oc1cn[nH]c(=O)c1C(F)(F)F [Example 646, (S)-1′-(3-(2-((6-Oxo-5-(trifluoromethyl)-1,6-dihydropyridazin-4-yl)oxy)propoxy)propanoyl)-1′,2′,3′,6′-tetrahydro-[2,4′-bipyridine]-5-carbonitrile]	< 100
COC[C@@H](COCCC(=O)N1CCN(c2cnc(C)cn2)CC1)Nc1cn[nH]c(=O)c1C(F)(F)F [Example 695, (S)-5-((1-Methoxy-3-(3-(4-(5-methylpyrazin-2-yl)piperazin-1-yl)-3-oxopropoxy)propan-2-yl)amino)-4-(trifluoromethyl)pyridazin-3(2H)-one]	< 100
C[C@@H](COCCC(=O)N1CCN(c2ncc(Cl)cn2)CC1)Nc1cn[nH]c(=O)c1C(F)(F)F [Example 562, 5-[[(2S)-1-[3-[4-(5-Chloropyrimidin-2-yl)piperazin-1-yl]-3-oxopropoxy]propan-2-yl]amino]-4-(trifluoromethyl)-2,3-dihydropyridazin-3-one]	< 100
N#Cc1ccc(N2CC3(CN(C(=O)CCOC[C@@H]4CCCN4c4cn[nH]c(=O)c4C(F)(F)F)C3)C2)nc1 [Example 108, 6-[6-(3-[[(2S)-1-[6-oxo-5-(trifluoromethyl)-1,6-dihydropyridazin-4-yl]pyrrolidin-2-yl]methoxy]propanoyl)-2,6-diazaspiro [3.3]heptan-2-yl]pyridine-3-carbonitrile]	100 to 1000
N#Cc1cnc(N2CCN(C(=O)c3cccc(OC[C@H]4c5ccccc5CN4c4cn[nH]c(=O)c4C(F)(F)F)c3)CC2)nc1 [Example 364, (R)-2-(4-(3-((2-(6-oxo-5-(trifluoromethyl)-1,6-dihydropyridazin-4-yl)isoindolin-1-yl)methoxy)benzoyl)piperazin-1-yl)pyrimidine-5-carbonitrile]	≥ 1000
CS(=O)(=O)c1ccc(N2CCN(C(=O)CCOC[C@@H]3CCCN3c3cn[nH]c(=O)c3C(F)(F)F)CC2)nc1 [Example 483, (S)-5-(2-((3-(4-(5-(Methylsulfonyl)pyridin-2-yl)piperazin-1-yl)-3-oxopropoxy)methyl)pyrrolidin-1-yl)-4-(trifluoromethyl)pyridazin-3(2H)-one]	< 100
O=C(c1cccc(OCC2c3ccccc3CN2c2cn[nH]c(=O)c2C(F)(F)F)c1)N1CCN(c2ccc(C(F)(F)F)cn2)CC1 (stereo not drawn) [Example 368, 4-(Trifluoromethyl)-5-(1-((3-(4-(5-(trifluoromethyl)pyridin-2-yl)piperazine-1-carbonyl)phenoxy)methyl)isoindolin-2-yl)pyridazin-3(2H)-one]	< 100
O=c1[nH]ncc(N2Cc3ccc(OC4CCNC4)cc3C2)c1C(F)(F)F (stereo not drawn) [Example 218, 5-(5-(Pyrrolidin-3-yloxy)isoindolin-2-yl)-4-(trifluoromethyl)pyridazin-3(2H)-one]	< 100

Now from value to compound:

IC50 [nM]	Structure (SMILES)
< 100	N#Cc1ccc(N2CCN(C(=O)c3ccnc(OCC4c5ccccc5CN4c4cn[nH]c(=O)c4C(F)(F)F)n3)CC2)nc1 (stereo not drawn) [Example 383, 6-(4-(2-((2-(6-Oxo-5-(trifluoromethyl)-1,6-dihydropyridazin-4-yl)isoindolin-1-yl)methoxy)pyrimidine-4-carbonyl)piperazin-1-yl)nicotinonitrile]
< 100	CO[C@H](C)[C@@H](COCCC(=O)N1CCN(c2ncc(C(F)(F)F)cn2)CC1)Nc1cn[nH]c(=O)c1C(F)(F)F [Example 607, 5-[[(2R,3R)-3-Methoxy-1-(3-oxo-3-[4-[5-(trifluoromethyl)pyrimidin-2-yl]piperazin-1-yl]propoxy)butan-2-yl]amino]-4-(trifluoromethyl)-2,3-dihydropyridazin-3-one]
< 100	O=c1[nH]ncc(N2Cc3cccc(OC4CCOC4)c3C2)c1C(F)(F)F (stereo not drawn) [Example 203, 5-(4-((Tetrahydrofuran-3-yl)oxy)isoindolin-2-yl)-4-(trifluoromethyl)pyridazin-3(2H)-one]
< 100	O=c1[nH]ncc(N2Cc3cccc(OCc4ccccn4)c3C2)c1C(F)(F)F [Example 198, 5-(4-(Pyridin-2-ylmethoxy)isoindolin-2-yl)-4-(trifluoromethyl)pyridazin-3(2H)-one]
